{"source": "patent US20190111168A1", "about": "“PHOTOSENSITIZER DISPERSION, AND USE THEREOF” (Universität Regensburg, priority 2016, published 2019)", "test": "absorption spectrum following irradiation with varying doses of light (degradation of photosensitizer)", "assay_type": "physicochemical", "details": "light dose 5.5 J to 990 J", "procedure": "The absorption of the FL-AS-H-1a photosensitizer used in the microemulsions E5 and E6 was determined by recording an absorption spectrum for a wavelength range of 250 nm to 600 nm, as described in Example 1. To this end, the FL-AS-H-2 photosensitizer was dissolved in a concentration of 10 μM in the microemulsions E5 and E6, as well as in water. Furthermore, an absorption spectrum of FL-AS-H-2 in microemulsions E5 and E6 as well as in water was measured following irradiation with varying doses of light. For the irradiation, the light source Blue V from Waldmann, which emits light at 380 to 480 nm (emission maximum at approximately 420 nm) was used. The applied light dose was from 5.5 J to 990 J.", "data": [{"smiles": "Cc1cc2nc3c(=O)n(CCN)c(=O)nc-3n(CCN)c2cc1C.Cl.Cl", "note": "[FL-AS-H-2, 3,10-bis(2′-aminoeth-1′-yl)-7,8-dimethylbenzo[g]pteridine-2,4-dion-dihydrochloride]", "values": [{"measurement": "degradation of the photosensitizer following irradiation", "setting": "10 μM in water, microemulsions E5 and E6, Blue V 380 to 480 nm", "value": "degraded both in water as well as in the microemulsions E5 and E6"}, {"measurement": "rate of degradation in water compared with microemulsion E5 or E6", "setting": "10 μM, Blue V", "value": "significantly faster"}]}]}
